# Results as given in patent CN111729074A, “多肽rl25在制备抗肿瘤药物中的应用” (Zhuhai Campus Of Zunyi Medical University, priority 2020, dated 2020).
# Legend:
# [1] = tested on: 3 tumour cells HCT-8, SKVO3, MCF-7 (3种肿瘤细胞); assay: MTT assay of cell proliferation, tumour cells (24 h); assay type: cell-based; conditions: for inhibitory effect on the 3 tumour cells: HCT-8, SKVO3, MCF-7, 24 h, in words (IC50 table is a picture); for killing effect on / toxicity to various tumour cells: summary statement
# HK2 cells (人肾小管上皮细胞) = assay: MTT assay of cell proliferation, normal cells HK2 (24 h); assay type: cell-based, human; conditions: for toxicity / side effect on HK2: in words; for toxicity to normal cells: summary statement
# tumour (肿瘤) = conditions: background statement on LL37; cited from earlier work
# normal cells (正常细胞) = conditions: background statement on LL37; cited from earlier work
# HCT-8 cells [2] = assay: HCT-8 apoptosis, Annexin V-FITC/PI flow cytometry (24 h); assay type: cell-based, human; conditions: for concentration dependence of apoptosis / average apoptosis rate / early apoptosis: HCT-8, 24 h; for early apoptosis: versus control
# HCT-8 cells [3] = assay: HCT-8 mitochondrial membrane potential, JC-1 flow cytometry (24 h); assay type: cell-based, human; conditions: HCT-8, 24 h; for mitochondrial membrane potential: with rising concentration (0-4 μM), versus control, P<0.01
# HCT-8 cells [4] = assay: ROS in HCT-8 cells, DCFH-DA flow cytometry (24 h); assay type: cell-based, human; conditions: HCT-8, 24 h; for ROS content compared with control: P>0.05
# [5] = Earlier antibacterial test; conditions: initial tests
# HCT-8 cells [6] = assay: MTT assay of cell proliferation, HCT-8 (therapeutic index); assay type: cell-based, human; conditions: in words
substance,measurement,setting,value
LL37: LL37是hCAP-18蛋白中含有37个氨基酸的C端 [reference compound],inhibitory effect on the 3 tumour cells,[1],抑制效果均表现较好
same,toxicity / side effect on HK2,"HK2 cells (人肾小管上皮细胞); HK2, 24 h",毒副作用也很明显
same,antitumour effect,tumour (肿瘤),良好的抗肿瘤效应
same,toxicity to normal cells,normal cells (正常细胞),对正常细胞的毒性较大
RL25: 氨基酸序列为:RLNRLFRKIRQVIRKFEKGIKEKSK,"therapeutic index, IC50(HK2)/IC50(tumour cells)","[1]; 3 tumour cells, in words",较高
same,therapeutic index compared with SE37,"[1]; 3 tumour cells, versus SE37",均高于SE37的治疗指数
same,inhibitory effect on tumour cells compared with LL37,"[1]; 3 tumour cells, versus positive drug LL37",相近或更好
same,inhibitory effect on the 3 tumour cells,[1],很好的抑制效果
same,killing effect on / toxicity to various tumour cells,[1],良好的杀伤效果
same,toxicity / side effect on HK2,"HK2 cells (人肾小管上皮细胞); HK2, 24 h",对正常细胞的毒性小
same,toxicity to normal cells compared with LL37,"HK2 cells (人肾小管上皮细胞); HK2, 24 h, versus positive drug LL37",毒性明显更小
same,toxicity to normal cells,HK2 cells (人肾小管上皮细胞),毒性轻微
same,concentration dependence of apoptosis,HCT-8 cells [2],明显的浓度依赖性
same,average apoptosis rate,HCT-8 cells [2]; 1 μM,29.56%
same,average apoptosis rate,HCT-8 cells [2]; 2 μM,37.44%
same,average apoptosis rate,HCT-8 cells [2]; 4 μM,55.15%
same,early apoptosis,HCT-8 cells [2],早期凋亡细胞的数目逐渐增加
same,killing effect compared with SE37,"HCT-8 cells [2]; HCT-8, 4 μM RL25 versus 6 μM SE37",强于浓度为6μM的SE37
same,mitochondrial membrane potential,HCT-8 cells [3],逐渐降低
same,"ROS content, trend",HCT-8 cells [4]; 0-4 μM,先升高后降低
same,ROS content compared with control,HCT-8 cells [4]; 4 μM,无明显差异
same,"ROS, mean fluorescence intensity (peak)","HCT-8 cells [4]; peak at 1 μM, versus control P<0.01",4670±91.804
same,antibacterial performance,[5],较好的抑菌性能
same,"therapeutic index, IC50(HK2)/IC50(HCT-8)",HCT-8 cells [6],较高
SE37: 抗菌肽SE37(其氨基酸序列为:SETRPVLNRLFDKIRQVIRKFEKGIKEKSKRFFDGLL) [reference compound],inhibitory effect on the 3 tumour cells,[1],抑制效果均表现较好
same,killing effect on / toxicity to various tumour cells,[1],毒性均较大
same,toxicity / side effect on HK2,"HK2 cells (人肾小管上皮细胞); HK2, 24 h",毒副作用也很明显
same,toxicity to normal cells,HK2 cells (人肾小管上皮细胞),毒性均较大
same,concentration dependence of apoptosis,HCT-8 cells [2],一定的浓度依赖性
same,average apoptosis rate,HCT-8 cells [2]; 3 μM,27.39%
same,average apoptosis rate,HCT-8 cells [2]; 6 μM,36.28%
same,early apoptosis,HCT-8 cells [2],出现明显的早期细胞凋亡
same,FL1 channel fluorescence,HCT-8 cells [3]; 0-4 μM,荧光增多
same,FL2 channel fluorescence,HCT-8 cells [3]; 0-4 μM,荧光减少
same,FL1 channel fluorescence signal,HCT-8 cells [3]; 4 μM versus 2 μM,并未明显增加
same,mitochondrial membrane potential,HCT-8 cells [3],明显降低
same,"ROS content, trend",HCT-8 cells [4]; 0-8 μM,先升高后降低
same,ROS content compared with control,HCT-8 cells [4]; 8 μM,已无明显变化
same,"ROS, mean fluorescence intensity (peak)",HCT-8 cells [4]; peak at 2 μM,3127.753±96.501
